Measured values: paper PMC3248958 (Bioorganic & medicinal chemistry, 2011)
Read-outs that look alike come from different tables or passages of the source.

Assays:
[1] = tested on: quinone reductase 1 (QR1); experiment: Quinone reductase 1; type: cell-based, mouse; settings: Hepa 1c1c7 cells; for QR1 Assay CD (concentration that doubles the activity): determined for compounds with induction ratios > 2
Human Aromatase = target: T1, Human Aromatase (Homo sapiens, UniProt P11511); experiment: Aromatase assay; type: biochemical
T1 sequence (P11511 1-503): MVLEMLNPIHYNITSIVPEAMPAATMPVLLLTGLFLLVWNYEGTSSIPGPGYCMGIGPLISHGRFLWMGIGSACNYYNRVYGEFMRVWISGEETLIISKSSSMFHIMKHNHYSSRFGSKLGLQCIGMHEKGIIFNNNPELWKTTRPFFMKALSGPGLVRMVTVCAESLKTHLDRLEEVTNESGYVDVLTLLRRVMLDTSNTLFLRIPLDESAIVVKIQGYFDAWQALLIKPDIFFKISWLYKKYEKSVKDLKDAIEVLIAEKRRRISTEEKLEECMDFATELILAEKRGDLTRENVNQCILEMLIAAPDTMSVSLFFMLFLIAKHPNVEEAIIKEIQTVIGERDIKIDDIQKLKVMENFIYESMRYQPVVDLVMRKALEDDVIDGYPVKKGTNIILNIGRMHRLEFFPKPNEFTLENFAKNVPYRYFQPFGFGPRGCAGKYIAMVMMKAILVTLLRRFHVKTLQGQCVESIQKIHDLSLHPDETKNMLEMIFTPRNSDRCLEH

[2] = tested at 400 μM of each compound

Row | SMILES | QR1 Assay CD (concentration that doubles the activity) [1] [µM] | other results
1 | Oc1ccc(CCc2cc(O)cc(O)c2)cc1 [dihydroresveratrol, reference compound] | > 50 | –
2 | Oc1ccc(-c2nsc(-c3ccc(O)cc3)n2)cc1 [Compound 3jj] | > 50 | –
3 | COc1ccc(-c2nsc(-c3ccc(OC)cc3)n2)cc1 [Compound 3g] | > 50 | –
4 | c1cncc(-c2nsc(-c3cccnc3)n2)c1 [Compound 3b] | – | times higher aromatase inhibitory activity than trans-resveratrol (Human Aromatase): 30-125 times; times more potent than the lead compound 3a as an aromatase inhibitor (Human Aromatase): greater than 250 times; DPPH assay % inhibition [2]: -16.1±1.1%
5 | Cc1ccc(-c2nsc(-c3ccc(C)cc3Br)n2)c(Br)c1 [Compound 3dd, 3,5-Bis(2-bromo-4-methylphenyl)-1,2,4-thiadiazole] | > 50 | –
6 | N#Cc1cccc(-c2nsc(-c3cccc(C#N)c3)n2)c1 [Compound 3hh, 3,3′-(1,2,4-Thiadiazole-3,5-diyl)dibenzonitrile] | > 50 | –
7 | O=c1cc(-c2ccc(Br)cc2)oc2ccccc12 [4'-Bromoflavone, reference compound] | – | QR1 Assay CD of positive control ([1]; positive control): 0.01 M
8 | Ic1ccc(-c2nsc(-c3ccc(I)cc3)n2)cc1 [Compound 3l, 3,5-Bis(4-iodophenyl)-1,2,4-thiadiazole] | > 50 | –
9 | CCCCc1ccc(-c2nsc(-c3ccc(CCCC)cc3)n2)cc1 [Compound 3z, 3,5-Bis(4-butylphenyl)-1,2,4-thiadiazole] | > 50 | –
10 | Clc1ccc(-c2nsc(-c3ccc(Cl)c(Cl)c3)n2)cc1Cl [Compound 3v, 3,5-Bis(3,4-dichlorophenyl)-1,2,4-thiadiazole] | > 50 | –
11 | Cc1ccc(-c2nsc(-c3ccc(C)cc3)n2)cc1 [Compound 3x, 3,5-Di-p-tolyl-1,2,4-thiadiazole] | > 50 | –
12 | c1cc(-c2nsc(-c3ccncc3)n2)ccn1 [Compound 3c] | > 50 | times higher aromatase inhibitory activity than trans-resveratrol (Human Aromatase; relative to trans-resveratrol): 30-125 times; DPPH assay % inhibition [2]: -35.6±0.4%
13 | N#Cc1ccc(-c2nsc(-c3ccc(C#N)cc3)n2)cc1 [Compound 3gg, 4,4′-(1,2,4-Thiadiazole-3,5-diyl)dibenzonitrile] | > 50 | –
14 | Nc1ccc(-c2nsc(-c3ccc(N)cc3)n2)cc1 [Compound 3ll, 3,5-Bis(4-aminophenyl)-1,2,4-thiadiazole] | > 50 | –
15 | O=[N+]([O-])c1ccc(-c2nsc(-c3ccc([N+](=O)[O-])cc3)n2)cc1 [Compound 3ff] | > 50 | –
